Key:
[1] = Crystallinity of reduced coenzyme Q10 in the particulate composition by DSC; assay type: physicochemical; settings: after preservation at 25° C. in the air for 30 days; measured/theoretical melting calorie
Procedure: The crystallinity of reduced coenzyme Q10 in the obtained particulate composition was determined by the following DSC (differential scanning calorimeter [EXSTAR6000 manufactured by Seiko Instruments Inc.]) analysis after preservation at 25° C. in the air for 30 days. The particulate compositions obtained in Examples and Comparative Examples were preserved under the above-mentioned given conditions, 10 mg thereof was taken in an aluminum pan and the temperature was elevated from 15° C. to 70° C. at a temperature rise rate of 5° C./min, during which the crystal melting calorie was measured. The crystallinity was calculated according to the following formula using the theoretical melting calorie determined from the content of reduced coenzyme Q10 in the particulate composition and the data of melting calorie actually measured by DSC. Crystallinity (%)=(measured melting calorie/theoretical melting calorie)×100 (Volume Average Particle Size)

[2] = Oxidative stability: residual ratio of reduced coenzyme Q10 after preservation at 40° C. in the air in light shading for 30 days; assay type: physicochemical
Procedure: The reduced coenzyme Q10 residual ratio (%) after preservation at 40° C. in the air for 30 days under shading conditions of the particulate composition containing reduced coenzyme Q10 of the present invention is not particularly limited. It is not less than about 50 wt %, preferably not less than about 60 wt %, more preferably not less than about 70 wt %, still more preferably not less than about 80 wt %, particularly preferably not less than about 90 wt %.
The purity of reduced coenzyme Q10 and the weight ratio (%) of reduced coenzyme Q10 were determined by the following HPLC analysis (weight ratio (%)={reduced coenzyme Q10/(oxidized coenzyme Q10+reduced coenzyme Q10)}×100).

## COc1c(O)c(C)c(C/C=C(\C)CC/C=C(\C)CC/C=C(\C)CC/C=C(\C)CC/C=C(\C)CC/C=C(\C)CC/C=C(\C)CC/C=C(\C)CC/C=C(\C)CCC=C(C)C)c(O)c1OC [Comparative Example 1, reduced coenzyme Q10]
[1]
  crystallinity measured by DSC: 100%
[2]
  residual ratio of the reduced coenzyme Q10: 28%

Source: patent publication US9981899B2, “Composition containing reduced coenzyme Q10 and production method thereof” (KANEKA CORPORATION, priority 2006, dated 2018)
